Data taken from patent US9448170B2 (priority 2003, dated 2016).
Where “and” joins values, the source holds several entries; their conditions need not be identical. Equal entries are not always repeated.

How the values were obtained:
Spirulina platensis = type: cell-based
Selenastrum capricomutum = test: Delayed fluorescence Curve / VCurve values with green algae photosynthetic sample; type: cell-based; details: simazine 25, 50, 100 ppb, dichlorophenol 1, 5, 10 ppm, 0.1 to 50 seconds after excitation; for Curve values variation with an increase in concentration: FIG. 37; for VCurve values variation with an increase in concentration: FIG. 38
Procedure: Meanwhile, if characteristic points are not present in a delayed fluorescence decay curve, the Curve values, determined for the entirety or a predetermined range of the decay curve, may be used as comparison values for carrying out the assay. Here, the Curve value at each measurement point n in a temporal variation of the light amount of delayed fluorescence is determined by: (amount of light emitted from the test measurement solution at measurement point n)−(amount of light emitted from the standard measurement solution at measurement point n).
In such a case, it is effective to use VCurve values, each being standardized by being determined as a ratio of a Curve value, which is a value obtained by determining a difference of the temporal variations of the light amount of delayed fluorescence acquired for the test measurement solution and the standard measurement solution, with respect to a light amount of delayed fluorescence acquired for the test measurement solution or the standard measurement solution (preferably, a light amount of delayed fluorescence acquired for the standard measurement solution), as the comparison values. The evaluation of variations within different time ranges is thereby facilitated. Here, in a temporal variation of the light amount of delayed fluorescence, the VCurve value at each measurement point n is determined as (Curve value at measurement point n)/(amount of light emitted from the standard measurement solution at measurement point n)×100.
FIG. 36 is a diagram of an example of a method of computing the Curve values when no characteristics points exist in a delayed fluorescence decay curve. Here, a delayed fluorescence decay curve of a standard measurement solution using Selenastrum capricomutum, which is a green algae and has been grown by a general method at a light intensity of 50 μmol/m^2/s under a white fluorescence lamp, as the photosynthetic sample is shown. Preparation of the sample is carried out in the same manner as in the case of Spirulina platensis. […] In such a case, assay using the Curve values is effective because assay that makes note of characteristic points cannot be made.
Specifically, graph (a) of FIG. 37 is a graph of the Curve values computed from the measurement results of test measurement solutions exposed to simazine, which is a herbicide, at concentrations of 25, 50, and 100 ppb and the measurement results of the standard measurement solution for a time range of 0.1 seconds to 50 seconds after excitation. Graph (b) is a graph of the Curve values computed from the measurement results of test measurement solutions exposed to dichlorophenol at concentrations of 1, 5, and 10 ppm and the measurement results of the standard measurement solution for a time range of 0.1 seconds to 50 seconds after excitation. […]

In the case of `C[n+]1ccc(-c2cc[n+](C)cc2)cc1` [paraquat], the “Curve value variation as the concentration becomes higher” value (“Curve value variation” for short) (Spirulina platensis) is reported as “varies in the negative direction at around 1 to 4 seconds after excitation”, the “variation of the VCP1 value with respect to concentration” value (“variation of the VCP1 value” for short) (Spirulina platensis) is reported as “decreases slightly” and the “variation of the VCP2 value with respect to concentration” value (“variation of the VCP2 value” for short) (Spirulina platensis) is reported as “decrease”. The “variation of the VTP2 value with respect to concentration” value (“variation of the VTP2 value” for short) (Spirulina platensis) was “decrease”.
With `CCNc1nc(Cl)nc(NCC)n1` [simazine] the “Curve values variation with an increase in concentration” value (Selenastrum capricomutum) was “vary in the positive direction near 0.1 seconds after excitation” and the “VCurve values variation with an increase in concentration” value (Selenastrum capricomutum) was “vary in the positive direction near 0.1 to 0.3 seconds after excitation”.
With `CCNc1nc(Cl)nc(NC(C)C)n1` [atrazine] the “Curve value variation” value (Spirulina platensis) was “varies in the positive direction at around 1 second after excitation and then varies in the negative direction at around 3 to 4 seconds after excitation”, the VCP1 value (Spirulina platensis) was 106.4 and the VCP2 value (Spirulina platensis) was 90.0. For the same compound, the VTP2 value (Spirulina platensis) was 100.0, the “variation of the VCP1 value” value (Spirulina platensis) was “increases” and the “variation of the VCP2 value” value (Spirulina platensis) was “decreases”. The “variation of the VTP2 value” value (Spirulina platensis) was “decreases slightly”.
For `CN(C)C(=O)Nc1ccc(Cl)c(Cl)c1` [DCMU, DCMU (diuron)], the “Curve value variation” value (Spirulina platensis) was “varies in positive direction at around 1 second after excitation and then varies in the negative direction at around 3 to 5 seconds after excitation”, the VCP1 value (Spirulina platensis) was 116.0 and 125.6 and 120.9 and the “VCP1 value after the activated carbon adsorption treatment” value (Spirulina platensis) was 96.3. For the same compound, the VCP2 value (Spirulina platensis) was 88.0 and 84.6, the VTP2 value (Spirulina platensis) was 100.0 and 101.5 and the “variation of the VCP1 value” value (Spirulina platensis) was “increases”. The “variation of the VCP2 value” value (Spirulina platensis) was “decreases” and the “variation of the VTP2 value” value (Spirulina platensis) was “hardly changes”.
With `[Hg+2]` [Hg2+, inorganic mercury] the “Curve value variation” value (Spirulina platensis) was “varies in the positive direction at around 1 to 2 seconds after excitation”, the “variation of the VCP1 value” value (Spirulina platensis) was “does not change much with an increase in the inorganic mercury concentration at low inorganic mercury concentration, at high inorganic mercury concentration, the VCP1 value increases” and the “variation of the VCP2 value” value (Spirulina platensis) was “decreases”. For the same compound, the “variation of the VTP2 value” value (Spirulina platensis) was “increases”.
For dichlorophenol, the “Curve values variation with an increase in concentration” value (Selenastrum capricomutum) was “vary in the negative direction near 0.2 to 10 seconds after excitation” and the “VCurve values variation with an increase in concentration” value (Selenastrum capricomutum) was “vary in the negative direction widely over the entire range”.
